Values of other authors, collected in patent US20110104273A1, “GASTRIC RETENTIVE PHARMACEUTICAL COMPOSITIONS FOR IMMEDIATE AND EXTENDED RELEASE OF PHENYLEPHRINE” (DEPOMED, INC., priority 2009, published 2011).
Counter-ions that a name gives are not always drawn. Like-named read-outs stand apart in the source and are kept apart here.

How the values were obtained:
[1] = not given; remark: listed apart in the source

| Structure (SMILES) | absorption from the gut (oral) | bioavailability (oral) | systemic bioavailability (oral administration) | fraction of oral dose excreted unchanged in the urine (oral dose) | threshold dosage for any effects on the cardiovascular system (cardiovascular system; administered orally in man) | effects on the cardiovascular system (cardiovascular system; oral over-the-counter (OTC) doses) | solubility in water ([1]; hydrochloride) | solubility in water [1] |
| --- | --- | --- | --- | --- | --- | --- | --- | --- |
| CNC[C@H](O)c1cccc(O)c1 [Phenylephrine, (R)-3-[-1-hydroxy-2-(methylamino)ethyl]phenol alcohol hydrochloride] | well absorbed | up to 38% | around 40% | about 3% | about 50 mg | minimal effects | highly soluble |  |
| CNC[C@H](O)c1cccc(O)c1 [Phenylephrine HCl] |  |  |  |  |  |  |  | freely soluble |
